Source: ChEMBL document CHEMBL4011590, “Structure-activity relationship studies on 3,5-dinitrophenyl tetrazoles as antitubercular agents” (Eur J Med Chem, 2017)

Tests used:
[1] = tested on: Nakaseomyces glabratus; assay: Antifungal activity against Candida glabrata 20/I after 24 hrs by broth microdilution method; format: functional
[2] = tested on: Lichtheimia corymbifera; assay: Antifungal activity against Absidia corymbifera 272 after 24 hrs by broth microdilution method; format: functional; conditions: Lichtheimia corymbifera, 272, 24 h
[3] = tested on: Mycobacterium tuberculosis; assay: Antimycobacterial activity against Mycobacterium tuberculosis H37Rv CNCTC My 331/88 after 14 days by micromethod; format: functional; conditions: H37Rv CNCTC My 331/88, 336 h
[4] = tested on: Staphylococcus aureus; assay: Antibacterial activity against Staphylococcus aureus ATCC 6538 after 48 hrs by broth microdilution method; format: functional; conditions: ATCC 6538, 48 h
[5] = tested on: Mycobacterium tuberculosis; assay: Antimycobacterial activity against Mycobacterium tuberculosis H37Rv CNCTC My 331/88 after 21 days by micromethod; format: functional; conditions: H37Rv CNCTC My 331/88, 504 h
[6] = tested on: Pichia kudriavzevii; assay: Antifungal activity against Candida krusei E28 after 48 hrs by broth microdilution method; format: functional; conditions: E28, 48 h
[7] = tested on: CHO-K1; assay: Cytotoxicity against CHOK1 cells after 24 hrs by MTT assay; format: cell-based; conditions: Cricetulus griseus, CHO-K1, 24 h
[8] = tested on: Pseudomonas aeruginosa; assay: Antibacterial activity against Pseudomonas aeruginosa ATCC 9027 after 48 hrs by broth microdilution method; format: functional; conditions: ATCC 9027, 48 h
[9] = tested on: Klebsiella pneumoniae; assay: Antibacterial activity against extended spectrum beta-lactamase producing Klebsiella pneumoniae HK14368/08 after 48 hrs by broth microdilution method; format: functional; conditions: HK14368/08, 48 h
[10] = tested on: Trichophyton mentagrophytes; assay: Antifungal activity against Trichophyton mentagrophytes 445 after 120 hrs by broth microdilution method; format: functional; conditions: Trichophyton mentagrophytes, 445, 120 h
[11] = tested on: Enterococcus sp.; assay: Antibacterial activity against Enterococcus sp. HK14365/08 after 24 hrs by broth microdilution method; format: functional; conditions: HK14365/08, 24 h
[12] = tested on: Mycobacterium kansasii; assay: Antimycobacterial activity against Mycobacterium kansasii CNCTC My 235/80 after 21 days by micromethod; format: functional; conditions: CNCTC My 235/80, 504 h
[13] = tested on: Staphylococcus aureus; assay: Antibacterial activity against methicillin-resistant Staphylococcus aureus HK5996/08 after 48 hrs by broth microdilution method; format: functional; conditions: HK5996/08, 48 h
[14] = tested on: Mycobacterium avium; assay: Antimycobacterial activity against Mycobacterium avium CNCTC My 330/80 after 14 days by micromethod; format: functional; conditions: CNCTC My 330/80, 336 h
[15] = tested on: Trichosporon asahii; assay: Antifungal activity against Trichosporon asahii 1188 after 48 hrs by broth microdilution method; format: functional; conditions: Trichosporon asahii, 1188, 48 h
[16] = tested on: Mycobacterium kansasii; assay: Antimycobacterial activity against Mycobacterium kansasii isolate 6509/96 after 21 days by micromethod; format: functional; conditions: isolate 6509/96, 504 h
[17] = tested on: Mycobacterium kansasii; assay: Antimycobacterial activity against Mycobacterium kansasii isolate 6509/96 after 14 days by micromethod; format: functional; conditions: isolate 6509/96, 336 h
[18] = tested on: Nakaseomyces glabratus; assay: Antifungal activity against Candida glabrata 20/I after 48 hrs by broth microdilution method; format: functional
[19] = tested on: Pseudomonas aeruginosa; assay: Antibacterial activity against Pseudomonas aeruginosa ATCC 9027 after 24 hrs by broth microdilution method; format: functional; conditions: ATCC 9027, 24 h
[20] = tested on: Candida albicans; assay: Antifungal activity against Candida albicans ATCC 44859 after 48 hrs by broth microdilution method; format: functional; conditions: ATCC 44859, 48 h
[21] = tested on: Aspergillus fumigatus; assay: Antifungal activity against Aspergillus fumigatus 231 after 24 hrs by broth microdilution method; format: functional; conditions: Aspergillus fumigatus, 231, 24 h
[22] = tested on: Mycobacterium kansasii; assay: Antimycobacterial activity against Mycobacterium kansasii CNCTC My 235/80 after 14 days by micromethod; format: functional; conditions: CNCTC My 235/80, 336 h
[23] = tested on: Escherichia coli; assay: Antibacterial activity against Escherichia coli ATCC 8739 after 24 hrs by broth microdilution method; format: functional; conditions: ATCC 8739, 24 h
[24] = tested on: Staphylococcus aureus; assay: Antibacterial activity against Staphylococcus aureus ATCC 6538 after 24 hrs by broth microdilution method; format: functional; conditions: ATCC 6538, 24 h
[25] = tested on: Klebsiella pneumoniae; assay: Antibacterial activity against extended spectrum beta-lactamase producing Klebsiella pneumoniae HK14368/08 after 24 hrs by broth microdilution method; format: functional; conditions: HK14368/08, 24 h
[26] = tested on: Mycobacterium kansasii; assay: Antimycobacterial activity against Mycobacterium kansasii isolate 6509/96 after 7 days by micromethod; format: functional; conditions: isolate 6509/96, 168 h
[27] = tested on: Klebsiella pneumoniae; assay: Antibacterial activity against Klebsiella pneumoniae HK11750/08 after 24 hrs by broth microdilution method; format: functional; conditions: HK11750/08, 24 h
[28] = tested on: Lichtheimia corymbifera; assay: Antifungal activity against Absidia corymbifera 272 after 48 hrs by broth microdilution method; format: functional; conditions: Lichtheimia corymbifera, 272, 48 h
[29] = tested on: Enterococcus sp.; assay: Antibacterial activity against Enterococcus sp. HK14365/08 after 48 hrs by broth microdilution method; format: functional; conditions: HK14365/08, 48 h
[30] = tested on: Mycobacterium avium; assay: Antimycobacterial activity against Mycobacterium avium CNCTC My 330/80 after 21 days by micromethod; format: functional; conditions: CNCTC My 330/80, 504 h
[31] = tested on: Staphylococcus aureus; assay: Antibacterial activity against methicillin-resistant Staphylococcus aureus HK5996/08 after 24 hrs by broth microdilution method; format: functional; conditions: HK5996/08, 24 h
[32] = tested on: Candida albicans; assay: Antifungal activity against Candida albicans ATCC 44859 after 24 hrs by broth microdilution method; format: functional; conditions: ATCC 44859, 24 h
[33] = tested on: Mycobacterium kansasii; assay: Antimycobacterial activity against Mycobacterium kansasii CNCTC My 235/80 after 7 days by micromethod; format: functional; conditions: CNCTC My 235/80, 168 h
[34] = tested on: Trichophyton mentagrophytes; assay: Antifungal activity against Trichophyton mentagrophytes 445 after 72 hrs by broth microdilution method; format: functional; conditions: Trichophyton mentagrophytes, 445, 72 h
[35] = tested on: Trichosporon asahii; assay: Antifungal activity against Trichosporon asahii 1188 after 24 hrs by broth microdilution method; format: functional; conditions: Trichosporon asahii, 1188, 24 h
[36] = tested on: Candida tropicalis; assay: Antifungal activity against Candida tropicalis 156 after 24 hrs by broth microdilution method; format: functional; conditions: Candida tropicalis, 156, 24 h
[37] = tested on: Candida tropicalis; assay: Antifungal activity against Candida tropicalis 156 after 48 hrs by broth microdilution method; format: functional; conditions: Candida tropicalis, 156, 48 h
[38] = tested on: Staphylococcus epidermidis; assay: Antibacterial activity against Staphylococcus epidermidis HK6966/08 after 24 hrs by broth microdilution method; format: functional; conditions: HK6966/08, 24 h
[39] = tested on: Staphylococcus epidermidis; assay: Antibacterial activity against Staphylococcus epidermidis HK6966/08 after 48 hrs by broth microdilution method; format: functional; conditions: HK6966/08, 48 h
[40] = tested on: Pichia kudriavzevii; assay: Antifungal activity against Candida krusei E28 after 24 hrs by broth microdilution method; format: functional; conditions: E28, 24 h
[41] = tested on: Klebsiella pneumoniae; assay: Antibacterial activity against Klebsiella pneumoniae HK11750/08 after 48 hrs by broth microdilution method; format: functional; conditions: HK11750/08, 48 h
[42] = tested on: Aspergillus fumigatus; assay: Antifungal activity against Aspergillus fumigatus 231 after 48 hrs by broth microdilution method; format: functional; conditions: Aspergillus fumigatus, 231, 48 h
[43] = tested on: Escherichia coli; assay: Antibacterial activity against Escherichia coli ATCC 8739 after 48 hrs by broth microdilution method; format: functional; conditions: ATCC 8739, 48 h

O=[N+]([O-])c1cc(-c2nnnn2Cc2ccccc2)cc([N+](=O)[O-])c1
500 µM: MIC [2] | MIC [8] | MIC [10] | MIC [19] | MIC [28] | MIC [34]
4 µM: MIC99 [16] | MIC99 [17]
> 500 µM: MIC [21] | MIC [42]
16 µM: MIC99 [14]
32 µM: MIC99 [30]
31.2 µM: MIC [31]
18 µM: IC50 [7]
2 µM: MIC99 [3] | MIC99 [5] | MIC99 [26]
125 µM: MIC [9] | MIC [23] | MIC [41]
8 µM: MIC99 [12] | MIC99 [22] | MIC99 [33]
62.5 µM: MIC [4] | MIC [11] | MIC [20] | MIC [24] | MIC [29] | MIC [32] | MIC [38] | MIC [39] | MIC [43]
15.6 µM: MIC [13]
250 µM: MIC [1] | MIC [6] | MIC [15] | MIC [18] | MIC [25] | MIC [27] | MIC [35] | MIC [36] | MIC [37] | MIC [40]

O=[N+]([O-])c1cc(-c2nnn(CSc3nnnn3Cc3ccccc3)n2)cc([N+](=O)[O-])c1
32 µM: MIC99 [30]
> 125 µM: MIC [1] | MIC [2] | MIC [4] | MIC [6] | MIC [8] | MIC [9] | MIC [10] | MIC [11] | MIC [13] | MIC [15] | MIC [18] | MIC [19] | MIC [20] | MIC [21] | MIC [23] | MIC [24] | MIC [25] | MIC [27] | MIC [28] | MIC [29] | MIC [31] | MIC [32] | MIC [34] | MIC [35] | MIC [36] | MIC [37] | MIC [38] | MIC [39] | MIC [40] | MIC [41] | MIC [42] | MIC [43]
0.125 µM: MIC99 [3] | MIC99 [5]
4 µM: MIC99 [12] | MIC99 [16] | MIC99 [17] | MIC99 [22]
16 µM: MIC99 [14]
2 µM: MIC99 [26] | MIC99 [33]

Cn1nnnc1SCn1nnc(-c2cc([N+](=O)[O-])cc([N+](=O)[O-])c2)n1
125 µM: MIC [38] | MIC [39]
16 µM: MIC99 [26] | MIC99 [33]
32 µM: MIC99 [12] | MIC99 [14] | MIC99 [16] | MIC99 [17] | MIC99 [22] | MIC99 [30]
500 µM: MIC [11] | MIC [29]
2 µM: MIC99 [3] | MIC99 [5]
> 500 µM: MIC [1] | MIC [2] | MIC [4] | MIC [6] | MIC [8] | MIC [9] | MIC [10] | MIC [13] | MIC [15] | MIC [18] | MIC [19] | MIC [20] | MIC [21] | MIC [23] | MIC [24] | MIC [25] | MIC [27] | MIC [28] | MIC [31] | MIC [32] | MIC [34] | MIC [35] | MIC [36] | MIC [37] | MIC [40] | MIC [41] | MIC [42] | MIC [43]

O=[N+]([O-])c1cc(-c2nnn(CSc3nnnn3-c3ccccc3)n2)cc([N+](=O)[O-])c1
1 µM: MIC99 [17] | MIC99 [33]
> 125 µM: MIC [1] | MIC [2] | MIC [4] | MIC [6] | MIC [8] | MIC [9] | MIC [10] | MIC [11] | MIC [13] | MIC [15] | MIC [18] | MIC [19] | MIC [20] | MIC [21] | MIC [23] | MIC [24] | MIC [25] | MIC [27] | MIC [28] | MIC [29] | MIC [31] | MIC [32] | MIC [34] | MIC [35] | MIC [36] | MIC [37] | MIC [38] | MIC [39] | MIC [40] | MIC [41] | MIC [42] | MIC [43]
0.25 µM: MIC99 [5]
4 µM: MIC99 [12]
2 µM: MIC99 [16] | MIC99 [22]
0.125 µM: MIC99 [3]
0.5 µM: MIC99 [26]
